Test results taken from publication PMC9410420, “Novel Labdane Diterpenes-Based Synthetic Derivatives: Identification of a Bifunctional Vasodilator That Inhibits CaV1.2 and Stimulates KCa1.1 Channels” (Marine Drugs, 2022).
Where two headings read alike, the source gives them in different places.

Columns and labels:
[1] = test system: rat aorta rings; experiment: KCl-induced contraction of rat aorta rings (electromechanical coupling)
Experimental: The abdominal aorta was gently cleaned of adipose and connective tissues and cut into 3-mm wide rings. These were mounted in organ baths between two parallel, L-shaped, stainless-steel hooks, with one fixed in place and the other connected to an isometric transducer. Rings were allowed to equilibrate for 60 min in modified Krebs-Henseleit solution (composition in mM: 118 NaCl, 4.75 KCl, 1.19 KH2PO4, 1.19 MgSO4, 25 NaHCO3, 11.5 glucose, 2.5 CaCl2, gassed with a 95% O2–5% CO2 gas mixture to create a pH of 7.4) under a passive tension of 1 g. During this equilibration period, the solution was changed every 15 min. Isometric tension was recorded using a digital PowerLab data acquisition system (PowerLab 8/30; ADInstruments). Ring viability was assessed by recording the response to 0.3 µM phenylephrine and 60 mM KCl. Where needed, the endothelium was removed by gently rubbing the lumen of the ring with a forceps tip. This procedure was validated by adding 10 µM acetylcholine at the plateau of phenylephrine-induced contraction; a relaxation greater than 70% or less than 10% denoted the presence or absence of functional endothelium, respectively.
Aorta rings were pre-contracted pharmaco-mechanically using 0.3 µM phenylephrine and electromechanically using 25–30 mM or 60 mM KCl. Once the contraction reached a plateau, the compound was added cumulatively into the organ bath. […] The response was calculated as the percentage of phenylephrine- or KCl-induced contraction (taken as 100%).

[2] = biological target: T1, KCa1.1 channel (Rattus norvegicus, UniProt Q62976); experiment: Whole-cell patch-clamp, K+ current through KCa1.1 channels (IKCa1.1) in tail artery myocytes; format: cell-based; details: 3, 10 and 30 µM cumulative; membrane potential 30–70 mV, Vh −40 mV
T1 construct: IKCa1.1 measured in tail artery myocytes; endogenous in cells; host or cells: freshly isolated rat tail main artery smooth muscle cells
Experimental: The tail main artery was dissected free of its connective tissue, and smooth muscle cells were freshly isolated under the following conditions. […] This solution was gently bubbled and stirred with a 95% O2–5% CO2 gas mixture, as previously described. Cells stored in 0.05 mM Ca^2+ external solution containing 20 mM taurine and 0.5 mg/mL BSA at 4 °C under normal air were used for experiments within two days after isolation.
An Axopatch 200B patch-clamp amplifier (Molecular Devices Corporation, Sunnyvale, CA, USA) was used to generate and apply voltage pulses to the clamped cells and record the corresponding membrane currents. Recording electrodes were pulled from borosilicate glass capillaries (WPI, Berlin, Germany) and fire-polished to obtain a pipette resistance of 2–4 MΩ, when filled with an internal solution. At the beginning of each experiment, the junction potential between the pipette and bath solution was electronically adjusted to zero. […]
K^+ current through the KCa1.1 channel (IKCa1.1) (registration period 500 ms) was measured over a range of test potentials, from −20 mV to 70 mV from a Vh of −40 mV. […] The current–voltage relationships were calculated based on the values recorded during each test pulse (leakage corrected offline). […]

[3] = test system: Langendorff perfused rat heart; experiment: Langendorff perfused rat heart (LVP, CPP, ECG); details: for QRS (intraventricular conduction time): control 13.4 ± 0.7; for PQ (atrioventricular conduction time): control 37.8 ± 1.8; for QTc (corrected QT): control 72.97 ± 1.7; for RR (cycle length): control 231.4 ± 7.8; for HR (frequency): control 261.9 ± 9.6
Experimental: Spontaneously beating heart was retrogradely perfused via the aorta at a constant perfusion flow in a Langendorff apparatus (Radnoti, Dublin, Ireland) with a physiological salt solution containing (mM) NaCl 118, KCl 4.7, CaCl2 2.5, MgSO4 1.2, NaHCO3 25, KH2PO4 1.2, glucose 11.5, Na pyruvate 2, and EDTA 0.5, and bubbled with a 95% O2−5% CO2 gas mixture (pH 7.4), and kept at 37 °C, as described elsewhere. Hearts were allowed to equilibrate for at least 20 min before 7 exposure. Heart contractility was measured as left ventricle developed pressure (LVDP) using a deionized water-filled latex balloon, connected to a pressure transducer (BLPR, WPI, Berlin, Germany) and inserted into the left ventricular cavity through the mitral valve. A pressure transducer (BLPR, WPI, Berlin, Germany) was placed in the inflow line, to record coronary perfusion pressure (CPP), a measure of coronary vascular resistance. Two steel electrodes, one positioned on the left atrium and the other on the apex of the heart, were used to record the surface electrocardiogram. Heart rate (HR) and RR (cycle length), PQ (atrioventricular conduction time), QRS (intraventricular conduction time), and QT (ventricular depolarization and repolarization) intervals were measured. The digital PowerLab data acquisition system (PowerLab 8/30; ADInstruments, Castle Hill, Australia) and Chart Pro for Windows software v. 7.3.7 (PowerLab; ADInstruments, Castle Hill, Australia) were used to record and analyze LVP, CPP, and ECG. As the QT interval is affected by HR changes (e.g., it shortens when HR increases), Bazett's formula normalized to average rat RR (QTc = QT/(RR/f)1/2) was routinely used to correct it, thus avoiding confounding effects. In this study, “f” (the normalization factor according to the basal RR duration) was 231.4 ms, as this was the average cardiac cycle length.

T1 sequence (Q62976 whole entry): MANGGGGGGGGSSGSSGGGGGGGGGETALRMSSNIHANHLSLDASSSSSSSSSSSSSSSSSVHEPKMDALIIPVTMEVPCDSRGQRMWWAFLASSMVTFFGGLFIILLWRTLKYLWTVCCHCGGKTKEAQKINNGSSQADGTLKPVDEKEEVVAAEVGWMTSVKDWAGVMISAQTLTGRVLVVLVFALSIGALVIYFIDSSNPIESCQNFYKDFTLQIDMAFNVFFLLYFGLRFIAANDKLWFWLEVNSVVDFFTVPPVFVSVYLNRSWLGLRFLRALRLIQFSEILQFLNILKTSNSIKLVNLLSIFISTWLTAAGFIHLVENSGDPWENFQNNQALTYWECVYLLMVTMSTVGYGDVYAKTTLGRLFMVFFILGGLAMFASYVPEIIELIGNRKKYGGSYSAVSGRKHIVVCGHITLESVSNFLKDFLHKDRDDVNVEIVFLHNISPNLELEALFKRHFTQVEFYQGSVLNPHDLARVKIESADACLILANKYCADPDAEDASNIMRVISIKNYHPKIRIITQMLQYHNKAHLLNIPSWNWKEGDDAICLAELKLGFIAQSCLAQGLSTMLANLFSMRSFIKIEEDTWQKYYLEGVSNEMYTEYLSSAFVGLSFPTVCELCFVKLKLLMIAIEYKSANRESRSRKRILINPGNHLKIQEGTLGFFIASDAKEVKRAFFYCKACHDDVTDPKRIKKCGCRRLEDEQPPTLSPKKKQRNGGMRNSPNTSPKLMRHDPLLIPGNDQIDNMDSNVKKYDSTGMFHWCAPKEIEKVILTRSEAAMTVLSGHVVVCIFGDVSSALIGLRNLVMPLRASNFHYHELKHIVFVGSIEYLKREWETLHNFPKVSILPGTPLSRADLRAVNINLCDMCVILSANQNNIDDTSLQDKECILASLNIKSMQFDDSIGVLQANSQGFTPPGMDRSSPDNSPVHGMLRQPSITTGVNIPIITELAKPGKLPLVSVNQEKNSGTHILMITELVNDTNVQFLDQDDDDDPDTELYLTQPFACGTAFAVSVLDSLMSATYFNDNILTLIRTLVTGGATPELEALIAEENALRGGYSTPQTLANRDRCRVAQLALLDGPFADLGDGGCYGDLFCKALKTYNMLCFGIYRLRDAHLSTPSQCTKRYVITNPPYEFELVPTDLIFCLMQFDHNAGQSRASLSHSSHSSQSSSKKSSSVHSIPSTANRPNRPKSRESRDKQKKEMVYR
T1 sequence (P97678 whole entry partner): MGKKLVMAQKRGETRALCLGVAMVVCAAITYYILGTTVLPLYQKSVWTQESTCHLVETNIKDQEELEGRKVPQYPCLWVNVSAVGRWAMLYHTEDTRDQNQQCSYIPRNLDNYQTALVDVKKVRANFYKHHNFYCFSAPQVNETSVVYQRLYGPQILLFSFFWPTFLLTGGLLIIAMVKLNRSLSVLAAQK

Structure (SMILES): CC1(C)CCC[C@]2(C)[C@@H](CC(=O)Nc3ccccc3-n3cccc3)[C@](C)(O)CC[C@@H]12 [Compound 7]
- Emax ([1]; endothelium-denuded rat aorta rings pre-contracted by 25 mM KCl, read-out: Emax (percent maximal inhibition), KCl 25 mM-induced contraction): 94.3 ± 4.5%
- IC50 ([1]; endothelium-denuded rat aorta rings pre-contracted by 25 mM KCl, read-out: IC50, KCl 25 mM-induced contraction): 0.2 ± 0.1 µM
- Emax ([1]; endothelium-denuded rat aorta rings pre-contracted by 60 mM KCl, read-out: Emax (percent maximal inhibition), KCl 60 mM-induced contraction): 89.7 ± 1.9%
- IC50 ([1]; endothelium-denuded rat aorta rings pre-contracted by 60 mM KCl, read-out: IC50, KCl 60 mM-induced contraction): 9.3 ± 2 µM
- Effect on IKCa1.1 [2]: significant concentration-dependent stimulation of the current
- QRS (intraventricular conduction time) ([3]; 1 µM): 13.6 ± 0.5 ms
- PQ (atrioventricular conduction time) ([3]; 1 µM): 37.2 ± 2.0 ms
- QTc (corrected QT) ([3]; 1 µM): 71.59 ± 0.8 ms
- RR (cycle length) ([3]; 1 µM): 230.8 ± 7.4 ms
- HR (frequency) ([3]; 1 µM): 261.8 ± 9.4 bpm
- QRS (intraventricular conduction time) ([3]; 3 µM): 14.0 ± 0.6 ms
- PQ (atrioventricular conduction time) ([3]; 3 µM): 37.4 ± 1.9 ms
- QTc (corrected QT) ([3]; 3 µM): 72.65 ± 1.3 ms
- RR (cycle length) ([3]; 3 µM): 231.8 ± 7.1 ms
- HR (frequency) ([3]; 3 µM): 256.9 ± 8.3 bpm
- QRS (intraventricular conduction time) ([3]; 10 µM): 13.9 ± 0.6 ms
- PQ (atrioventricular conduction time) ([3]; 10 µM): 39.0 ± 1.9 ms
- QTc (corrected QT) ([3]; 10 µM): 73.31 ± 1.2 ms
- RR (cycle length) ([3]; 10 µM): 236.4 ± 7.1 ms
- HR (frequency) ([3]; 10 µM): 255.3 ± 8.0 bpm
- QRS (intraventricular conduction time) ([3]; 30 µM): 15.2 ± 0.8 ms
- PQ (atrioventricular conduction time) ([3]; 30 µM): 42.2 ± 2.7 ms
- QTc (corrected QT) ([3]; 30 µM): 75.13 ± 1.7 ms
- RR (cycle length) ([3]; 30 µM): 249.8 ± 10.7 ms
- HR (frequency) ([3]; 30 µM): 242.8 ± 11.5 bpm
- Effect on coronary perfusion pressure (CPP) ([3]; 1–30 µM, n = 5): significantly decreased CPP
- Effect on left ventricular pressure (LVP) ([3]; 1–30 µM, n = 5): leaving LVP unaltered
